Columns and labels:
[1] = drug concentration in liquid formulations (liquid chromatography / HPLC assay); assay type: physicochemical; settings: 4 mg/ml PEG 200 formulation
From the text: In accordance with exemplary embodiments of the present invention, a series of liquid formulations were developed for the local or regional delivery of water insoluble compounds such as sirolimus and its analogs, including CCl-779, ABT-578 and everolimus, through weeping balloons and catheter injection needles. […] These liquid formulations increase the apparent solubility of the pharmacologically active but water insoluble compounds by two to four orders of magnitude as compared to the solubility limits of the compounds in water. These liquid formulations rely on the use of a very small amount of organic solvents such as Ethanol (typically less than two percent) and a larger amount of safe amphiphilic (of or relating to a molecule having a polar, water soluble group attached to a non-polar, water insoluble […]) excipients such as polyethylene glycol (PEG 200, PEG 400) and vitamin E TPGS to enhance the solubility of the compounds. These liquid formulations of highly water insoluble compounds are stable and readily flowable at room temperature. Certain excipients, such as Vitamin E TPGS and BHT may be utilized to enhance the storage stability of sirolimus compounds through their anti-oxidation properties. […]

[2] = test system: human coronary artery smooth muscle cells; assay: Anti-proliferative activity in non-synchronized cultured human coronary artery smooth muscle cells stimulated with two percent fetal bovine serum; assay type: cell-based
From the text: The multiple curves represent various concentrations of mycophenolic acid ranging from zero to one thousand nanomolar concentrations.
FIG. 58 illustrates, in graphical format, the anti-proliferative activity of cladribine in non-synchronized cultured human coronary artery smooth muscle cells stimulated with two percent fetal bovine serum.
The multiple curves represent various concentrations of cladribine ranging from zero to nine hundred nanomolar concentrations.

[3] = in vivo release kinetics from rapamycin / mycophenolic acid EVA/BMA coating, porcine pharmacokinetics studies; settings: EVA/BMA basecoat, 180 micrograms each drug, BMA topcoat 0, 100 or 200 micrograms
[4] = test system: human coronary artery smooth muscle cells; assay: antiproliferative effects of PX867 on cultured human coronary artery smooth muscle cells; assay type: cell-based; settings: PX867 alone, concentration of about 10^−6 (unit not given)
From the text: A PI3 kinase inhibitor can affect restinosis when administered by local or systemic delivery alone or in combination with sirolimus. FIGS. 87 and 88 illustrate the antiproliferative effects of PX867 on cultured human coronary artery smooth muscle cells alone (FIG. 87) or in combination with sirolimus (FIG. 88). […] Curve 8702 illustrates the percent inhibition for various concentrations. In FIG. 88, the six curves 8802, 8804, 8806, 8808, 8810 and 8812 represent various concentrations of PX867 with various concentrations of sirolimus. […] More specifically, curve 8812 illustrates the percent inhibition for a 240 nM PX-867 concentration. […] This may be compared to curve 8804 which represents a 15 nM PX-867 concentration. As one can see, the percent inhibition increases as the concentration of sirolimus increases. Accordingly, a potent PI3 kinase inhibitor, such as PX-867, can improve the inhibition of coronary artery smooth muscle cell proliferation either as a stand alone treatment or via combination with another restenotic agent, such as sirolimus.

[5] = test system: human coronary artery smooth muscle cells; assay: Anti-proliferative activity in synchronized cultured human coronary artery smooth muscle cells stimulated with two percent fetal bovine serum; assay type: cell-based; settings: for effect on anti-proliferative rapamycin dose response curves: leftward and upward shift
From the text: (§1) The multiple curves represent various concentrations of topotecan ranging from zero to three hundred nanomolar concentrations.
(§2) The multiple curves represent various concentrations of etoposide ranging from zero to eight hundred nanomolar concentrations.
The multiple curves represent various concentrations of Panzem® ranging from zero to 100 micromolar concentrations.

[6] = test system: human coronary artery smooth muscle cell; settings: concentrations up to 30,000.00 nanomolar (6.6 to 30,000.00 nanomolar tested)
From the text: In vitro cytotoxicity tests or assays may be utilized to determine if drugs, agents and/or compounds are potentially toxic and the level of toxicity. Essentially, in vitro cytotoxicity assays determine acute necrotic effects by a drug causing direct cellular damage. The idea behind these assays is that toxic chemicals affect basic functions of cells which are common to all cells. […] There are a number of different assays that may be utilized. In the present invention, the cytotoxicity assay utilized is based upon the measurement of cellular metabolic activity. A reduction in metabolic activity is an indication of cellular damage. Tests that can measure metabolic function measure cellular ATP levels or mitochondrial activity via MTS metabolism. FIG. 69 is a graphical representation of the results of an MTS assay of Panzem®.

cell viability = cell viability assay; assay type: cell-based
From the text: as §1, §2

[7] = in vitro release of sirolimus and cilostazol from dual drug coating; assay type: physicochemical; settings: single-layer sirolimus + cilostazol coating of FIG. 83
[8] = test system: human smooth muscle cells; assay: Inhibition of human vascular cell proliferation with cladribine, PDGF-stimulated smooth muscle cells; assay type: cell-based
Description: To assess the ability of cladribine to prevent cell proliferation, human smooth muscle or endothelial cells (Clonetics, Walkersville, Md.) were seeded at a density of 2000 cells/cm^2 (approximately 3600 cells/well) into each well of 12-well plates and cultured with 1.5 ml of growth medium containing five percent fetal calf serum (FCS). After twenty-four hours, the growth medium was changed and fresh medium containing 10 ng/ml platelet-derived growth factor AB (PDGF AB; LIFE Technologies), as well as various concentrations of cladribine (0.001-10,000 nM) were added with triplicate wells. Medium was replaced with fresh cladribine-containing medium after three days. On day six, cells were detached by trypsinization to yield a cell suspension, lightly centrifuged to pellet and then counted manually using a Neubauer hemocytometer system. Cell viability was assessed by trypan blue exclusion.

[9] = in vivo release kinetics from rapamycin / cladribine EVA/BMA coating, porcine pharmacokinetics studies; design: species or system Yorkshire pigs; settings: EVA/BMA basecoat with 200 microgram BMA topcoat, Bx Velocity stents
From the text: The basecoat is applied to Bx Velocity® stents and implanted into Yorkshire pigs.
The basecoat is applied to BxVelocity® stents and implanted into Yorkshire pigs.

[10] = test system: human coronary artery smooth muscle cell; assay: in vitro cell culture study, coronary artery smooth muscle cell proliferation (trichostatin A); assay type: cell-based
From the text: FIG. 51 is a graph of the inhibition of coronary artery smooth muscle cells by trichostatin A in a cell culture study.

tumor cell lines = settings: Woo et al., J. Med Chem 2002; cited from earlier work

For `CO[C@H]1C[C@@H]2CC[C@@H](C)[C@@](O)(O2)C(=O)C(=O)N2CCCC[C@H]2C(=O)O[C@H]([C@H](C)C[C@@H]2CC[C@@H](O)[C@H](OC)C2)CC(=O)[C@H](C)/C=C(\C)[C@@H](O)[C@@H](OC)C(=O)[C@H](C)C[C@H](C)/C=C/C=C/C=C/1C` [rapamycin], which “concentration relative to the solubility of sirolimus in water” value [1] is on record?
The value was “four hundred to about one thousand”.

For `COc1c(C)c2c(c(O)c1C/C=C(\C)CCC(=O)O)C(=O)OC2` [mycophenolic acid], which “effect on anti-proliferative rapamycin dose response curve” value ([2]; mycophenolic acid zero to one thousand nanomolar added to rapamycin, leftward and upward shift) is on record?
Its value is “potentiates the anti-proliferative activity of rapamycin”.

What about the “in vivo elution compared with rapamycin” value [3] of the same molecule?
The value was “elutes more completely over a shorter duration than the rapamycin”.

With `COC[C@H]1OC(=O)/C(=C\N2CCCC2)C2=C(O)C(=O)C3=C([C@H](OC(C)=O)C[C@]4(C)C(=O)CC[C@@H]34)[C@]21C` [PX867] as the molecule, how does the “inhibition of coronary artery smooth muscle cell proliferation” value [4] read?
The value was “one hundred”.

Which anti-proliferative activity ([5]; Panzem alone) does the source give for `COc1cc2c(cc1O)CC[C@@H]1[C@@H]2CC[C@]2(C)[C@@H](O)CC[C@@H]12` [Panzem®, 2-methoxyestradiol] here?
The anti-proliferative activity was “extremely effective inhibitor of human coronary artery smooth muscle cell proliferation in vitro”.

What about the “effect on percent inhibition by rapamycin” value ([5]; Panzem zero to 100 micromolar added to rapamycin) of the same molecule?
Its value is “increases the percent of inhibition of rapamycin alone”.

And the “cytotoxicity (MTS assay), cell survival” value [6]?
The value was “do not reduce human coronary artery smooth muscle cell survival”.

For `CC[C@@]1(O)C(=O)OCc2c1cc1n(c2=O)Cc2cc3c(CN(C)C)c(O)ccc3nc2-1` [topotecan], which “effect on anti-proliferative rapamycin dose response curves” value ([5]; topotecan zero to three hundred nanomolar added to rapamycin) is on record?
The value was “does in fact potentiate the anti-proliferative activity of rapamycin”.

What about the cytotoxicity (cell viability; concentrations up to one micromolar) of the same molecule?
The cytotoxicity was “non-cytotoxic”.

For `O=C1CCc2cc(OCCCCc3nnnn3C3CCCCC3)ccc2N1` [cilostazol, 6[4-(1-cyclohexyl-1H-tetrazol-5-yl)-butoxy]-3,4-dihydro-2-(1H)-quinolinone], which in vitro release [7] is on record?
Its in vitro release is roughly 35%.

For `COc1cc([C@@H]2c3cc4c(cc3[C@@H](O[C@@H]3O[C@@H]5CO[C@@H](C)O[C@H]5[C@H](O)[C@H]3O)[C@H]3COC(=O)[C@H]23)OCO4)cc(OC)c1O` [etoposide], which “effect on anti-proliferative rapamycin dose response curves” value ([5]; etoposide zero to eight hundred nanomolar added to rapamycin) is on record?
Its value is “potentiate the anti-proliferative activity of rapamycin”.

And the cytotoxicity (cell viability; concentrations up to ten micromolar)?
Its cytotoxicity is “non-cytotoxic”.

For `Nc1nc(Cl)nc2c1ncn2[C@H]1C[C@H](O)[C@@H](CO)O1` [Cladribine, 2-chlorodeoxyadenosine], which “potency as inhibitor of smooth muscle cells relative to endothelial cells” value [8] is on record?
The value was “approximately twice”.

And the “inhibition of human coronary artery smooth muscle cell proliferation” value ([2]; cladribine alone)?
The value was “completely inhibits human coronary artery smooth muscle cell proliferation”.

What about the “effect on anti-proliferative rapamycin dose response curves” value ([2]; cladribine zero to nine hundred nanomolar added to rapamycin, leftward and upward shift) of the same molecule?
Its value is “does in fact potentiate the anti-proliferative activity of rapamycin”.

What about the “in vivo elution compared with rapamycin” value [9] of the same molecule?
Its value is “elutes more rapidly than rapamycin”.

Which “inhibition of human coronary artery smooth muscle cell proliferation” value [10] does the source give for `CC(/C=C/C(=O)NO)=C\[C@@H](C)C(=O)c1ccc(N(C)C)cc1` [trichostatin A] here?
Its value is “completely inhibit human coronary artery smooth muscle cell proliferation”.

What about the IC50 ([10]; read-out: anti-proliferative IC50) of the same molecule?
The IC50 was roughly 6 nM.

And the “anti-proliferative IC50's” value (tumor cell lines)?
Its value is “low nM range”.

From patent US20090074831A1, “LOCAL […] […] OF mTOR INHIBITORS IN COMBINATION WITH PEROXISOME PROLIFERATORS-ACTIVATED RECEPTOR STIMULATORS” (priority 2007, published 2009)
